Results: the NIST ThermoML archive (doi:10.1016/j.jct.2019.03.023)
Numbers after ± are expanded uncertainties.

Conditions: isochoric method

`CC(C)O` [propan-2-ol] showed a mass density (380.35 K, Liquid) of 697.69 ± 1.4 kg/m3, a mass density (451.83 K, Liquid) of 581.06 ± 1.2 kg/m3 and a mass density (507.95 K, Liquid) of 343.1 ± 2.4 kg/m3. The mass density (508.16 K, Liquid) was 329.2 ± 2.8 kg/m3, the mass density (508.28 K, Liquid) was 324.5 ± 2.8 kg/m3 and the mass density (508.51 K, Gas) was 234.3 ± 4.5 kg/m3. For the same compound, the mass density (508.68 K, Liquid) was 293.3 ± 3.2 kg/m3, the mass density (508.69 K, Liquid) was 288.99 ± 3.5 kg/m3 and the mass density (508.7 K, Gas) was 255.8 ± 4.6 kg/m3. The mass density (508.71 K, Liquid) was 281.9 ± 4 kg/m3, the mass density (508.72 K, Gas) was 266.3 ± 6.1 kg/m3 and the mass density (508.72 K, Liquid) was 274 ± 4.6 kg/m3.
